Test results published in ChEMBL document CHEMBL3627649, “Identification of Substituted Naphthotriazolediones as Novel Tryptophan 2,3-Dioxygenase (TDO) Inhibitors through Structure-Based Virtual Screening” (J Med Chem, 2015).

How the values were obtained:
[1] = target: Indoleamine 2,3-dioxygenase 1 (Homo sapiens, UniProt P14902); experiment: Inhibition of recombinant human IDO expressed in Escherichia coli incubated for 1 hr measured by fluorescence assay
[2] = target: Tryptophan 2,3-dioxygenase (Homo sapiens, UniProt P48775); experiment: Inhibition of recombinant human TDO expressed in Escherichia coli incubated for 1 hr measured by absorbance assay
Catalase = target: T1, Catalase (Homo sapiens, UniProt P04040); experiment: Inhibition of catalase (unknown origin)
T1 sequence (P04040 whole entry): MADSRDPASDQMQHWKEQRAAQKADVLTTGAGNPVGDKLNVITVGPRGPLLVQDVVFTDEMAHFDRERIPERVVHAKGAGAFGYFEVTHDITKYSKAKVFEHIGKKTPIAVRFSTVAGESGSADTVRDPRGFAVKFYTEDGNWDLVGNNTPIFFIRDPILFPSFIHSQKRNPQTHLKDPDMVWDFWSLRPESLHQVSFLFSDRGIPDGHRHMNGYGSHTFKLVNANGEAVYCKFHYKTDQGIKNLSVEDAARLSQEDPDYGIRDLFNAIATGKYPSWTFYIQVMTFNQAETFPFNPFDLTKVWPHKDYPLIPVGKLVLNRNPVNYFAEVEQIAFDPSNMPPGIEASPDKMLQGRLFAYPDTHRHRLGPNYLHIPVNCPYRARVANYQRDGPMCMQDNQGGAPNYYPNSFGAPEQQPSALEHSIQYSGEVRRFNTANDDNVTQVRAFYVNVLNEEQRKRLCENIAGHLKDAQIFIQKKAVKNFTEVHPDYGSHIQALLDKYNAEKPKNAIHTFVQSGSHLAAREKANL

[3] = target: Epidermal growth factor receptor (Homo sapiens, UniProt P00533); experiment: Inhibition of human EGFR incubated for 2 hrs by Kinase-Glo luminescent kinase assay
[4] = Inhibition of human muscle mitochondrial complex 1 by spectrophotometric assay
[5] = Inhibition of Dengue virus type 2 NS2B-NS3 protease
[6] = target: C-X-C chemokine receptor type 4 (Homo sapiens, UniProt P61073); experiment: Displacement of 125I-SDF-1 from human CXCR4 expressed in HEK293 cells incubated for 1.5 hrs by Topcount analysis; type: cell-based
Mu-type opioid receptor = Mu-type opioid receptor (Homo sapiens, UniProt P35372); experiment: Inhibition of recombinant mu-opioid receptor (unknown origin) expressed in CHO cells for 60 mins; type: cell-based
[7] = target: T2, Receptor-type tyrosine-protein kinase FLT3 (Homo sapiens, UniProt P36888); experiment: Inhibition of FLT3 (unknown origin) expressed in Sf9 insect cells for 4 hrs by Kinase-Glo assay
T2 sequence (P36888 whole entry): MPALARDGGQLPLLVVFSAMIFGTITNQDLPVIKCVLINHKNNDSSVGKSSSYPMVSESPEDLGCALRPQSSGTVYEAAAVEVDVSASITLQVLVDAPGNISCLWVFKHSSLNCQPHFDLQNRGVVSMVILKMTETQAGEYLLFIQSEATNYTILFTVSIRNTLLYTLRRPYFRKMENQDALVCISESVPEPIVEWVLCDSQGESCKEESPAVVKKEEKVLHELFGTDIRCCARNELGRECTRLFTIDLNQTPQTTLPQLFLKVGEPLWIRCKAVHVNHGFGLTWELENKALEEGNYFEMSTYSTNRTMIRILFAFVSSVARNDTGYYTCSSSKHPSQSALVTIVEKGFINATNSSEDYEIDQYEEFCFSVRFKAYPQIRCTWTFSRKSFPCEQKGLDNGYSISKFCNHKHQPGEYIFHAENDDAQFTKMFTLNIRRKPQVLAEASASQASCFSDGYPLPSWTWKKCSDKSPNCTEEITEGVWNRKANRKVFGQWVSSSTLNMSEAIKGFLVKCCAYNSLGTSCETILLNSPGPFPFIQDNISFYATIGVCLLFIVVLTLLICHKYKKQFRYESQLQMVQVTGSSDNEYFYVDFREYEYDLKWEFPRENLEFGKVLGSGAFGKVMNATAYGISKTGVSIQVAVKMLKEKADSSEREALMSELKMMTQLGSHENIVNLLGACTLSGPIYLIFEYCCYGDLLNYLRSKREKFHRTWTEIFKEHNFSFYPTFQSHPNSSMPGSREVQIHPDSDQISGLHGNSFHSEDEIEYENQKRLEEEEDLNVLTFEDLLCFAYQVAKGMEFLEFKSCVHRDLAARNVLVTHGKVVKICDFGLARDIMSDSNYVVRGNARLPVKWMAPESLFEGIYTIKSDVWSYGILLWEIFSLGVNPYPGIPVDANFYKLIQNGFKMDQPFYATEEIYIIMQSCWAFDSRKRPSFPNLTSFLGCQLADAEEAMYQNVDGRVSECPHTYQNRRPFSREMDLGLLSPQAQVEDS

Aurora kinase A = target: T3, Aurora kinase A (Homo sapiens, UniProt O14965); experiment: Inhibition of Aurora A (unknown origin)
T3 sequence (O14965 whole entry): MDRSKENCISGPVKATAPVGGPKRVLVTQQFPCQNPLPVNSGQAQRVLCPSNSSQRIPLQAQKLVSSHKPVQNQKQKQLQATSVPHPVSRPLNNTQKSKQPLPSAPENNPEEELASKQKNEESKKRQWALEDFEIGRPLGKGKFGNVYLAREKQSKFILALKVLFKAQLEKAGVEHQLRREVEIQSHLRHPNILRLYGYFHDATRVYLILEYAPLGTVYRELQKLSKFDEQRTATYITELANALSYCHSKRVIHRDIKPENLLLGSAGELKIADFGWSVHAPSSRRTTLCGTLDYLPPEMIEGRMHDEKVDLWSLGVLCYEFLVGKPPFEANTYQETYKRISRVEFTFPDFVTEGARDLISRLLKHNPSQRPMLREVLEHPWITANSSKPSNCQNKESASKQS

[8] = Redox cycling activity of the compound assessed as H2O2 production incubated for 15 mins by HRP-PR assay in presence of 0.8 mM DTT
[9] = target: T4, Tyrosine-protein phosphatase non-receptor type 1 (Homo sapiens, UniProt P18031); experiment: Inhibition of human PTP1B preincubated with protein for 15 mins followed by DiFMUP addition for 1 hr measured by fluorescence analysis
T4 sequence (P18031 whole entry): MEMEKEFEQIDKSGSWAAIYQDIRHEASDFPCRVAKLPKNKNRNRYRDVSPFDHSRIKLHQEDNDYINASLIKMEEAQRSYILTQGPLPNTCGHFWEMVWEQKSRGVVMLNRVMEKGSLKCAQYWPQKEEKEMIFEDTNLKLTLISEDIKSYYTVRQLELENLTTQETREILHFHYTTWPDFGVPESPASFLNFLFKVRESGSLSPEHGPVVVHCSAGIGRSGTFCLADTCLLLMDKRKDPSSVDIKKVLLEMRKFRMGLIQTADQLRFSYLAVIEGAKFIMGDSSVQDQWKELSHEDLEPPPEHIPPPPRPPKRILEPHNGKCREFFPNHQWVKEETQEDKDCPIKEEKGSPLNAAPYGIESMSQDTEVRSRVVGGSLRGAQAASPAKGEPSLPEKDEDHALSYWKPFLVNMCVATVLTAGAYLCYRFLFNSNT

Chain of Indoleamine 2,3-dioxygenase 1 (P14902 whole entry): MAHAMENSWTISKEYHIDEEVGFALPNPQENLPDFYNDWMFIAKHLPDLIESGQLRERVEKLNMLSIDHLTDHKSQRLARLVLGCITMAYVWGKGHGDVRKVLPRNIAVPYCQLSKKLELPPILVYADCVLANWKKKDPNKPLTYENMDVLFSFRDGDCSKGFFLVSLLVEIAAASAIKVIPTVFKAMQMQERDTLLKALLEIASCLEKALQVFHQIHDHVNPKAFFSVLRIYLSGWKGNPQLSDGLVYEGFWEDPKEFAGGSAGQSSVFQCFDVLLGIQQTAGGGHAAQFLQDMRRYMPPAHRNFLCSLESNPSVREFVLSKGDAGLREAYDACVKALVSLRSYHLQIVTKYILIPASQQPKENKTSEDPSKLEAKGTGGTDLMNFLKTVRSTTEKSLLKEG
Chain of Tryptophan 2,3-dioxygenase (P48775 whole entry): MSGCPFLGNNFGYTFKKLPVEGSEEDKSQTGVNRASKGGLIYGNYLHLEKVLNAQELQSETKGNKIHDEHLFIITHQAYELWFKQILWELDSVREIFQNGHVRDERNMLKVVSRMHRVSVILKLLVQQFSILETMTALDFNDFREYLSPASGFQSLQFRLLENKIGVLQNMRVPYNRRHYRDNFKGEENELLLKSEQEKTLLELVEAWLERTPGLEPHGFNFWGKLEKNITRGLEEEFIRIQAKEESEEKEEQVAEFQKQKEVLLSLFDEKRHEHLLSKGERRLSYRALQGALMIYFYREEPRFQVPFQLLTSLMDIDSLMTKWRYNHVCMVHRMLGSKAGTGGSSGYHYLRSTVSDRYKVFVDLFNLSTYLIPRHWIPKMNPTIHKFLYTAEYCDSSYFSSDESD
Chain of Epidermal growth factor receptor (P00533 whole entry): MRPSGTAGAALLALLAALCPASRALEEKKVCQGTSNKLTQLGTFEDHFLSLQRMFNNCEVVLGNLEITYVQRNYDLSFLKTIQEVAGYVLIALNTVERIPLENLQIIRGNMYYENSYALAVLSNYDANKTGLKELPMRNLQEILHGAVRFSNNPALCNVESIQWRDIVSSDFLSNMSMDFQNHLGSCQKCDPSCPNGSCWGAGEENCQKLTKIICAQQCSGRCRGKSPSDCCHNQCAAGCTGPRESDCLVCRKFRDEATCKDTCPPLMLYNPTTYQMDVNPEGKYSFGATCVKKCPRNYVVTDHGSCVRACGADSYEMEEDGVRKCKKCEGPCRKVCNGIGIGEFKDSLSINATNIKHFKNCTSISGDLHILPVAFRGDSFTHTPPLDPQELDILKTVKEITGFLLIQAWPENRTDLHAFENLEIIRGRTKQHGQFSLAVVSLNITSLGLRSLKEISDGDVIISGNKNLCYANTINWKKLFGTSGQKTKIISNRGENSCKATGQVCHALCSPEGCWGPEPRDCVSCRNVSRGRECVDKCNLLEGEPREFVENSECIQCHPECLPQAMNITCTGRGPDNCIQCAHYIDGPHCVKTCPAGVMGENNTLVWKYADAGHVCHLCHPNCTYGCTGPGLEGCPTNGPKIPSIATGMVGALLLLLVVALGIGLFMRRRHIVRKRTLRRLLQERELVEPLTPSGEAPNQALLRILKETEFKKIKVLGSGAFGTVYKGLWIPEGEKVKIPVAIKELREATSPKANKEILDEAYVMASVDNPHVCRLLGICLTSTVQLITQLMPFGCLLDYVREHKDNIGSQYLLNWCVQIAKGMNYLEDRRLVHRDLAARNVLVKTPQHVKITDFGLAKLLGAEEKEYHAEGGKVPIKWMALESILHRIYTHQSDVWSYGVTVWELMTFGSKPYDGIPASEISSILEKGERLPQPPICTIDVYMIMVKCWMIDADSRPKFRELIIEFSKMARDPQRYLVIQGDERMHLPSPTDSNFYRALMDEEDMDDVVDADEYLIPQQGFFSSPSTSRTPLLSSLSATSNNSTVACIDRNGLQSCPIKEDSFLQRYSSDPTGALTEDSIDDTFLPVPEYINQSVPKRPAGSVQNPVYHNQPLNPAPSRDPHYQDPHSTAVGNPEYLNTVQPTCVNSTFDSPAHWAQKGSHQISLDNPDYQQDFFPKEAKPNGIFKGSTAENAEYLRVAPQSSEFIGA
Chain of Mu-type opioid receptor (P35372 whole entry): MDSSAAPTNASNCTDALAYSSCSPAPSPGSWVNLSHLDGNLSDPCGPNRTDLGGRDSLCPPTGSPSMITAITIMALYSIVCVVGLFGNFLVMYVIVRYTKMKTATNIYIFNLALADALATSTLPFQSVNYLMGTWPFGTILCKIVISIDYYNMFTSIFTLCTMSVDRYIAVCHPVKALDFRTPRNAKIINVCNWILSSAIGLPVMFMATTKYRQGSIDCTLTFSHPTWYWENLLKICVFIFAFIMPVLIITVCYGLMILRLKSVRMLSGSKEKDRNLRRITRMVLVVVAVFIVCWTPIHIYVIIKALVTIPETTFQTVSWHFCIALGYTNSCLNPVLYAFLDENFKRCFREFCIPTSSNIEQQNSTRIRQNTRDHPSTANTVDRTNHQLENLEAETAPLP
Chain of C-X-C chemokine receptor type 4 (P61073 whole entry): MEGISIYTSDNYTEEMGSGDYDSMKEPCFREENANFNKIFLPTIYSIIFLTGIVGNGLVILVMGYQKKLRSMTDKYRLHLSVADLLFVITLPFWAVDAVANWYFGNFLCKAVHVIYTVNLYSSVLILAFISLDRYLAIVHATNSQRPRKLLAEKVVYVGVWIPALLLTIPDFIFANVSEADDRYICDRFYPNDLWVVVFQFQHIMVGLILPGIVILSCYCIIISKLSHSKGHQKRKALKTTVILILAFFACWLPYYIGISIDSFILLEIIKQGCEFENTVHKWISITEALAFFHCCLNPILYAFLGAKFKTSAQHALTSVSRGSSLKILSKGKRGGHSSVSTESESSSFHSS

| SMILES | IC50 [1] [µM] | IC50 [2] [µM] | other results |
| --- | --- | --- | --- |
| CC(=O)N1CCN(C(=O)c2ccc(Cn3nnc4c3C(=O)c3ccccc3C4=O)cc2)CC1 | 1.1 | 0.176 | – |
| O=C1c2ccccc2C(=O)c2c1nnn2Cc1ccc(F)cc1 | 2.59 | 7.38 | – |
| O=C1c2ccccc2C(=O)c2c1nnn2Cc1ccc(Cl)cc1 | > 10 | 6.46 | – |
| Cc1ccc(Cn2nnc3c2C(=O)c2ccccc2C3=O)cc1 | 1.77 | 1.09 | – |
| O=C1c2ccccc2C(=O)c2c1nnn2Cc1cccc(Br)c1 | 3.16 | 0.768 | – |
| COC1CCN(C(=O)c2ccc(Cn3nnc4c3C(=O)c3ccccc3C4=O)cc2)CC1 | 1.59 | 0.209 | – |
| O=C1c2ccccc2C(=O)c2c1nnn2Cc1ccc(C(=O)N2CCOCC2)cc1 | 0.982 | 0.116 | – |
| O=C(O)c1ccc(Cn2nnc3c2C(=O)c2ccccc2C3=O)cc1 | 2.32 | 0.312 | – |
| O=C1c2ccccc2C(=O)c2c1nnn2Cc1ccc(Br)cc1 | > 10 | 1.59 | – |
| O=C(O)c1cccc(Cn2nnc3c2C(=O)c2ccccc2C3=O)c1 | 1.24 | 0.167 | – |
| CCN(CC)C(=O)c1ccc(Cn2nnc3c2C(=O)c2ccccc2C3=O)cc1 | 1.93 | 0.181 | – |
| Cc1cccc(Cn2nnc3c2C(=O)c2ccccc2C3=O)c1 | 4.61 | 1.75 | – |
| CN1CCN(C(=O)c2ccc(Cn3nnc4c3C(=O)c3ccccc3C4=O)cc2)CC1 | 2.07 | 0.108 | – |

Now from value to molecule, other results behind:

| IC50 [1] [µM] | IC50 [2] [µM] | SMILES | other results |
| --- | --- | --- | --- |
| 0.936 | 0.048 | O=C1c2ccccc2C(=O)c2c1nnn2Cc1cccc(C(=O)N2CCOCC2)c1 | – |
| 0.809 | 0.561 | Cc1ccccc1Cn1nnc2c1C(=O)c1ccccc1C2=O | IC50 (Catalase): > 10 µM; IC50 [3]: > 10 µM; IC50 [4]: > 10 µM; IC50 [5]: > 10 µM; IC50 [6]: > 10 µM; IC50 (Mu-type opioid receptor): > 10 µM; IC50 [7]: > 10 µM; IC50 (Aurora kinase A): > 10 µM |
| 0.602 | 0.059 | CC(=O)N1CCN(C(=O)c2cccc(Cn3nnc4c3C(=O)c3ccccc3C4=O)c2)CC1 | – |
| 0.922 | 0.145 | CCN(CC)C(=O)Cc1ccc(Cn2nnc3c2C(=O)c2ccccc2C3=O)cc1 | – |
| 0.977 | 0.09 | CCN(CC)C(=O)c1cccc(Cn2nnc3c2C(=O)c2ccccc2C3=O)c1 | – |
| 0.64 | – | CN1CCN(C(=O)c2cccc(Cn3nnc4c3C(=O)c3ccccc3C4=O)c2)CC1 | IC50 (Catalase): > 10 µM; IC50 [3]: > 10 µM; IC50 [4]: > 10 µM; IC50 [5]: > 10 µM; AC50 [8]: > 50 µM; IC50 [6]: > 10 µM; IC50 (Mu-type opioid receptor): > 10 µM; IC50 [9]: > 10 µM; IC50 [7]: > 10 µM; IC50 (Aurora kinase A): > 10 µM |
| 0.767 | 0.711 | O=C1c2ccccc2C(=O)c2c1nnn2Cc1cccc(Cl)c1 | AC50 [8]: > 50 µM; IC50 [9]: > 10 µM |
